Results from PMC4804155 (Chembiochem : a European journal of chemical biology, 2015).
Where two headings read alike, the source gives them in different places.

Legend:
[1] = biological target: T1, MOF (male absent on the first, MYST1, HAT8) (Homo sapiens, UniProt Q9H7Z6, I317A); assay: CPM fluorogenic enzyme kinetics, Km; format: biochemical
T1 sequence (Q9H7Z6 174-447 I317A limits assumed): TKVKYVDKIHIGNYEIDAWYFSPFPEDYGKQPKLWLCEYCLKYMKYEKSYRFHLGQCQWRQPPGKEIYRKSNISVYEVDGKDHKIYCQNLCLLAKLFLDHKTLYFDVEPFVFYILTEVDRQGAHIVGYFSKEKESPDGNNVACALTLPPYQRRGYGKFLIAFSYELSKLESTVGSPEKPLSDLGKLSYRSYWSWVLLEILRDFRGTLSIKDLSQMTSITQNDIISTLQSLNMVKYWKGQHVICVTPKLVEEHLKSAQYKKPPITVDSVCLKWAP

[2] = biological target: MOF (male absent on the first, MYST1, HAT8) (Homo sapiens, UniProt Q9H7Z6)
[3] = biological target: T1, MOF (male absent on the first, MYST1, HAT8)

Chain of MOF (male absent on the first, MYST1, HAT8) (Homo sapiens, UniProt Q9H7Z6) (Q9H7Z6 2-458): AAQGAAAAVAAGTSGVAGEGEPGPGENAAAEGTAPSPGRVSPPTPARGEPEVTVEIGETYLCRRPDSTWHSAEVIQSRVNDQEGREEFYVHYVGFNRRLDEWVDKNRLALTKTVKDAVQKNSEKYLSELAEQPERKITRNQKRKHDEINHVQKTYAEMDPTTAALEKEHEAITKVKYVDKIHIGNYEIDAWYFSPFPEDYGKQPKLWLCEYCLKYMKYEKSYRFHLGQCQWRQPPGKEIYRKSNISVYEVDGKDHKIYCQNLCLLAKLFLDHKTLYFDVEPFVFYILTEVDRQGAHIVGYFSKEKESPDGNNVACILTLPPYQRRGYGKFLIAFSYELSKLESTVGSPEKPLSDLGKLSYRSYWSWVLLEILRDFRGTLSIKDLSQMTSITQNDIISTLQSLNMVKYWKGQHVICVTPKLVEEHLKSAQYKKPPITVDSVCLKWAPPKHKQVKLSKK

Structure (SMILES) | Km [1] [µM] | Km [2] [µM] | Km [3] [µM]
CC(C)(COP(=O)(O)OP(=O)(O)OC[C@H]1O[C@@H](n2cnc3c(N)ncnc32)[C@H](O)[C@@H]1OP(=O)(O)O)[C@@H](O)C(=O)NCCC(=O)NCCSC(=O)CCN=[N+]=[N-] [3-azidopropanoyl CoA] | 2.7 ± 0.2 | – | –
CC(=O)SCCNC(=O)CCNC(=O)[C@H](O)C(C)(C)COP(=O)(O)OP(=O)(O)OC[C@H]1O[C@@H](n2cnc3c(N)ncnc32)[C@H](O)[C@@H]1OP(=O)(O)O [acetyl-CoA] | – | 1.3 ± 0.1 | 3.5 ± 0.2
